Results on 30 compounds are retold here after US12410160B2 (Gilead Sciences, Inc., priority 2021, dated 2025).

Each structure is given as a SMILES string.

One experiment has as its target human KHK-C (Homo sapiens (Human), UniProt P50053). The experiment can be described thus: KHK Biochemical Assay (IC50), ADP-Glo, KHK-C. As to conditions: ADP-Glo; average of at least two separate assays. In outline:
(§1)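 ADP-Glo luminescence measured ADP made over a 4 h room-temperature reaction of ATP plus fructose, started after 30 min compound–enzyme pre-incubation. Buffer: 50 mM Hepes pH 7.4, 140 mM KCl, 5 mM MgCl2, 0.01% Triton-X. Enzyme was His-tagged, BL21 (DE3)-expressed, Ni-NTA-purified; compounds in 1:3 DMSO dilution series.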
In general terms: ADP-Glo turns the ADP formed in a reaction into a luminescent signal.

The target of another experiment is human KHK-A (Homo sapiens (Human), UniProt P50053). Put plainly: KHK Biochemical Assay (IC50), ADP-Glo, KHK-A. The conditions noted are these: ADP-Glo; average of at least two separate assays. In short, it runs like this: as §1
Chain of human KHK-A (P50053 other isoform, or with tags, fused parts or gaps): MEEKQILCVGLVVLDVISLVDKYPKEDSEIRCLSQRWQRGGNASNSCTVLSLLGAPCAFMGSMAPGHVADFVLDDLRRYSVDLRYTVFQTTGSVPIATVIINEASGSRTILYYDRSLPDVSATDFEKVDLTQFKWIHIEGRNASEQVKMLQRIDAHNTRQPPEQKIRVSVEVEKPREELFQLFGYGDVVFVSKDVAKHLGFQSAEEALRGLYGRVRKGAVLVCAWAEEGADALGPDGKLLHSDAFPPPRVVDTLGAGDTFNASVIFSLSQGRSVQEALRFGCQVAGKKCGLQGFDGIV

Chain of human KHK-C (P50053 whole entry): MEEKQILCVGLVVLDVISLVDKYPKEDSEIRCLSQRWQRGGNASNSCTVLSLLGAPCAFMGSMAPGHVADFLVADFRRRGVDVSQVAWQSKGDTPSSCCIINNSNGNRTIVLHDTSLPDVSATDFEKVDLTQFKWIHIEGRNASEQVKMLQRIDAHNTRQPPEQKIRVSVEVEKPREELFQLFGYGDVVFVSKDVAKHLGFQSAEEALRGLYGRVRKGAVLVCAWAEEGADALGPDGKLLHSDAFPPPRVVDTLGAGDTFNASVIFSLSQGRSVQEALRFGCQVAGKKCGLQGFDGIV

A word on the IC50: it is the concentration needed to halve the response being measured. The low end stands for greater potency, the high end for weaker potency. Take `C[C@H]1CCN1c1nc2c(c(-c3ccc(-n4cccn4)cc3)n1)CCC2` [Example 102, (S)-4-(4-(1H-pyrazol-1-yl)phenyl)-2-(2-methylazetidin-1-yl)-6,7-dihydro-5H-cyclopenta[d]pyrimidine]: the values for the IC50 against human KHK-C and on human KHK-A were 420 nM and 279 nM, respectively.
On to `C[C@H]1CCN1c1nc2c(c(-c3ccc(-c4ccn[nH]4)cc3)n1)CCC2` [Example 103, (S)-4-(4-(1H-pyrazol-5-yl)phenyl)-2-(2-methylazetidin-1-yl)-6,7-dihydro-5H-cyclopenta[d]pyrimidine], for which the IC50 against human KHK-C turned out to be 1280 nM; at human KHK-A, 707 nM.
For the compound `CC1CN(c2nc3c(c(-c4ccc(C(N)=O)cc4)n2)CCC3)C1C` (stereo not drawn) [Example 105, 4-(2-(2,3-dimethylazetidin-1-yl)-6,7-dihydro-5H-cyclopenta[d]pyrimidin-4-yl)benzamide], the IC50 at human KHK-C came out at 205 nM; on human KHK-A, 253 nM.
For `C[C@@H]1[C@@H](C)CN1c1nc2c(c(-c3ccc(C(N)=O)cc3)n1)CCC2` [Example 108] the same measures were 466 nM and 594 nM.
For `C[C@@H]1CN(c2nc3c(c(-c4ccc(C(N)=O)cc4)n2)CCC3)[C@@H]1C` [Example 109, 4-(2-((2R,3R)-2,3-dimethylazetidin-1-yl)-6,7-dihydro-5H-cyclopenta[d]pyrimidin-4-yl)benzamide] the same measures were 2540 nM and 3200 nM.
`Cc1nc2cc(-c3nc(N4CC[C@@H]4C)nc4c3CCC4)ccc2s1` [Example 110, (S)-2-methyl-5-(2-(2-methylazetidin-1-yl)-6,7-dihydro-5H-cyclopenta[d]pyrimidin-4-yl)benzo[d]thiazole]: the results for the half-inhibitory concentration (IC50) against human KHK-C and against human KHK-A were 136 nM and 322 nM, respectively.
For `C#CC1CCN1c1nc2c(c(-c3ccc(C(N)=O)cc3)n1)CCC2` (stereo not drawn) [Example 111, 4-(2-(2-ethynylazetidin-1-yl)-6,7-dihydro-5H-cyclopenta[d]pyrimidin-4-yl)benzamide] the same measures were 152 nM and 186 nM.
For `C[C@H]1[C@H](O)CN1c1nc2c(c(-c3cccc(C4CC4C(N)=O)c3)n1)CCC2` (stereo partly drawn) [Example 112, 2-(3-(2-((2S,3R)-3-hydroxy-2-methylazetidin-1-yl)-6,7-dihydro-5H-cyclopenta[d]pyrimidin-4-yl)phenyl)cyclopropane-1-carboxamide] the same measures were 68.8 nM and 103 nM.
For `C[C@H]1CCN1c1nc2c(c(-c3cccc(C45CCC(C4)C5C(=O)O)c3)n1)CCC2` (stereo partly drawn) [Example 115, 1-(3-(2-((S)-2-methylazetidin-1-yl)-6,7-dihydro-5H-cyclopenta[d]pyrimidin-4-yl)phenyl)bicyclo[2.1.1]hexane-5-carboxylic acid] the same measures were 109 nM and 94.1 nM.
With `C[C@H]1CCN1c1nc2c(c(-c3cc(C(N)=O)cc(C(N)=O)c3)n1)CCC2` [Example 116, (S)-5-(2-(2-methylazetidin-1-yl)-6,7-dihydro-5H-cyclopenta[d]pyrimidin-4-yl)isophthalamide], the IC50 was 39.8 nM on human KHK-C and 54.6 nM against human KHK-A.
For `CC1=C(c2nc3c(c(-c4ccc(C(N)=O)cc4)n2)CCC3)CCC1=O` [Example 117, 4-(2-(2-methyl-3-oxocyclopent-1-en-1-yl)-6,7-dihydro-5H-cyclopenta[d]pyrimidin-4-yl)benzamide] the same measures were 3780 nM and 4780 nM.
In the case of `C[C@H]1CCN1c1nc2c(c(-c3ccc4c(O)n[nH]c4c3)n1)CCC2` [Example 120, (S)-6-(2-(2-methylazetidin-1-yl)-6,7-dihydro-5H-cyclopenta[d]pyrimidin-4-yl)-1H-indazol-3-ol], the IC50 worked out at 42.7 nM on human KHK-C and 46.1 nM on human KHK-A.
Consider `C[C@H]1[C@H](O)CN1c1nc2c(c(-c3ccc4c(c3)CN(C)C4=O)n1)CCC2` [Example 194, 5-[2-[(2S,3R)-3-hydroxy-2-methyl-azetidin-1-yl]-6,7-dihydro-5H-cyclopenta[d]pyrimidin-4-yl]-2-methyl-isoindolin-1-one], for which the values for the IC50 against human KHK-C and against human KHK-A were 219 nM and 308 nM, respectively.
On to `C[C@H]1[C@H](F)CN1c1nc2c(c(-c3ccc(S(N)(=O)=O)cc3)n1)CCC2` [Example 198, 4-[2-[(2S,3R)-3-fluoro-2-methyl-azetidin-1-yl]-6,7-dihydro-5H-cyclopenta[d]pyrimidin-4-yl]benzenesulfonamide], for which the IC50 on human KHK-C came out at 98.3 nM; against human KHK-A it was 124 nM.
For `C[C@H]1[C@H](O)CN1c1nc2c(c(-c3ccc(S(N)(=O)=O)cc3)n1)CCC2` [Example 199, 4-[2-[(2S,3R)-3-hydroxy-2-methyl-azetidin-1-yl]-6,7-dihydro-5H-cyclopenta[d]pyrimidin-4-yl]benzenesulfonamide] the same measures were 149 nM and 282 nM.
For `C[C@H]1CCN1c1nc2c(c(-c3cncc(S(N)(=O)=O)c3)n1)CCC2` [Example 205, 5-[2-[(2S)-2-methylazetidin-1-yl]-6,7-dihydro-5H-cyclopenta[d]pyrimidin-4-yl]pyridine-3-sulfonamide], the IC50 on human KHK-C was determined as 108 nM; on human KHK-A, 79.9 nM.
As for `C[C@H]1CCN1c1nc(-c2ccccc2)c2cccnc2n1` [Example 212, 2-[(2S)-2-methylazetidin-1-yl]-4-phenyl-pyrido[2,3-d]pyrimidine], the figures for the IC50 at human KHK-C and on human KHK-A were 5590 nM and 10500 nM, respectively.
For `CNS(=O)(=O)c1cccc(-c2nc(N3CC[C@@H]3C)nc3c2CCC3)c1` [Example 214, N-methyl-3-[2-[(2S)-2-methylazetidin-1-yl]-6,7-dihydro-5H-cyclopenta[d]pyrimidin-4-yl]benzenesulfonamide] the same measures were 37.7 nM and 37.5 nM.
Turning to `C[C@H]1CCN1c1nc2c(c(-c3cccc(S(=O)(=O)N(C)C)c3)n1)CCC2` [Example 215, N,N-dimethyl-3-[2-[(2S)-2-methylazetidin-1-yl]-6,7-dihydro-5H-cyclopenta[d]pyrimidin-4-yl]benzenesulfonamide], the IC50 at human KHK-C is 106 nM; against human KHK-A, 78.9 nM.
Turning to `C[C@H]1CCN1c1nc2c(c(-c3cccc(C(=O)NCc4ccccc4)c3)n1)CCC2` [Example 218, N-benzyl-3-[2-[(2S)-2-methylazetidin-1-yl]-6,7-dihydro-5H-cyclopenta[d]pyrimidin-4-yl]benzamide], the IC50 at human KHK-C is 485 nM; at human KHK-A, 418 nM.
Take `C[C@H]1CCN1c1nc2c(c(-c3ccc4c(c3)CCN(C)C4=O)n1)CCC2` [Example 222, (S)-2-methyl-6-(2-(2-methylazetidin-1-yl)-6,7-dihydro-5H-cyclopenta[d]pyrimidin-4-yl)-3,4-dihydroisoquinolin-1(2H)-one]: the values for the IC50 against human KHK-C and against human KHK-A were 79.2 nM and 75.1 nM, respectively.
With `C[C@H]1CCN1c1nc2c(c(-c3cccc(CNC(=O)C(C)(C)O)c3)n1)CCC2` [Example 228, 2-hydroxy-2-methyl-N-[[3-[2-[(2S)-2-methylazetidin-1-yl]-6,7-dihydro-5H-cyclopenta[d]pyrimidin-4-yl]phenyl]methyl]propanamide], the IC50 against human KHK-C is 143 nM; at human KHK-A, 159 nM.
Regarding `C[C@@H](O)C(=O)NCc1cccc(-c2nc(N3CC[C@@H]3C)nc3c2CCC3)c1` [Example 229, (2R)-2-hydroxy-N-[[3-[2-[(2S)-2-methylazetidin-1-yl]-6,7-dihydro-5H-cyclopenta[d]pyrimidin-4-yl]phenyl]methyl]propanamide], the values for the IC50 against human KHK-C and at human KHK-A were 95.7 nM and 108 nM, respectively.
For `C[C@H](O)C(=O)NCc1cccc(-c2nc(N3CC[C@@H]3C)nc3c2CCC3)c1` [Example 230, (2S)-2-hydroxy-N-[[3-[2-[(2S)-2-methylazetidin-1-yl]-6,7-dihydro-5H-cyclopenta[d]pyrimidin-4-yl]phenyl]methyl]propanamide] the same measures were 107 nM and 96.7 nM.
For `C[C@H]1CCN1c1nc2c(c(-c3ccc(C4CNC4)cc3)n1)CCC2` [Example 233, 4-[4-(azetidin-3-yl)phenyl]-2-[(2S)-2-methylazetidin-1-yl]-6,7-dihydro-5H-cyclopenta[d]pyrimidine] the same measures were 9.7 nM and 55.7 nM.
Take `C[C@H]1CCN1c1nc2c(c(-c3ccc4c(c3)C(=O)NS4(=O)=O)n1)CCC2` [Example 239, (S)-5-(2-(2-methylazetidin-1-yl)-6,7-dihydro-5H-cyclopenta[d]pyrimidin-4-yl)benzo[d]isothiazol-3(2H)-one 1,1-dioxide]: the IC50 came out at 70.6 nM against human KHK-C and 117 nM against human KHK-A.
With `C[C@H]1CCN1c1nc2c(c(-c3ccc4nc(C(F)(F)F)[nH]c4c3)n1)CCC2` [Example 241, 6-[2-[(2S)-2-methylazetidin-1-yl]-6,7-dihydro-5H-cyclopenta[d]pyrimidin-4-yl]-2-(trifluoromethyl)-1H-benzimidazole], the values for the IC50 against human KHK-C and against human KHK-A were 1070 nM and 803 nM, respectively.
For `C[C@H]1CCN1c1nc2c(c(-c3ccc(CS(N)(=O)=O)cc3)n1)CCC2` [Example 242, [4-[2-[(2S)-2-methylazetidin-1-yl]-6,7-dihydro-5H-cyclopenta[d]pyrimidin-4-yl]phenyl]methanesulfonamide] the same measures were 135 nM and 98.6 nM.
For `C[C@H]1CCN1c1nc2c(c(-c3ccc4[nH]nc(C(F)(F)F)c4c3)n1)CCC2` [Example 243, 5-[2-[(2S)-2-methylazetidin-1-yl]-6,7-dihydro-5H-cyclopenta[d]pyrimidin-4-yl]-3-(trifluoromethyl)-1H-indazole] the same measures were greater than 5000 nM and greater than 5000 nM.
For `C[C@H]1CCN1c1nc2c(c(-c3cnn(C(F)F)c3)n1)CCC2` [Example 259, 4-[1-(difluoromethyl)pyrazol-4-yl]-2-[(2S)-2-methylazetidin-1-yl]-6,7-dihydro-5H-cyclopenta[d]pyrimidine] the same measures were 312 nM and 380 nM.
